Two molecules from US20030162759A1, “Aldosterone blocker therapy to prevent or treat inflammation-related disorders” (priority 2000, published 2003) can be followed below.

“And” between values parts separate entries of the source, which are not always exact repeats. Identical values can stand only once. “Also recorded” adds a separate entry of the source.

Holding throughout (type): in vivo, rat
Assay [1] concerns Vascular Cell Adhesion Molecule-1 (VCAM-1). Briefly: Assay C: VCAM-1 relative mRNA expression in heart (TaqMan). Particulars: for VCAM, Mean / VCAM: mRNA; for VCAM, Mean: group mean; for VCAM: individual rats. The method, then: (§1) The procedure of Assay B was expanded upon in a further study. […] Myocardial tissue from animals in each treatment group was examined after 7, 14, or 30 days of treatment.
(§2) Potassium chloride supplementation was added to the saline solution in order to prevent the potential hypokalemia associated with aldosterone excess.
(§3) At the time of the surgery, an Alzet 2002 osmotic minipump (Alza Corp., Palo Alto, Calif.) containing either vehicle (9% ethanol/87% propylene glycol/4% dH2O) or 1.0 mg/mL d-aldosterone (Sigma Chemical, St. Louis, Mo.) was inserted subcutaneously at the nape of the neck. Aldosterone was administered at a dose of 0.75 g/hour. […] Animals were sacrificed from each group (n=8-13) after 7, 14, or 30 days of treatment.
(§4) The fluorogenic 5′-nuclease assay (TaqMan PCR) using Applied Biosystems' 7700 Sequence Detection System (Applied Biosystems, Foster City, Calif.) allowed for real time detection/quantitation of a specific gene by monitoring the increase in fluorescence of a gene-specific, dye-labeled oligonucleotide probe. Probes for target and reference genes were labeled at the 5′-end with a 6-carboxyfluorescein (6FAM) reporter dye and at the 3′-end with a 6-carboxy-N,N,N′,N′-tetramethylrhodamine (TAMRA) quencher dye. When the probe was annealed to the target gene, fluorescence of 6FAM was prevented by the close proximity of TAMRA. The exonuclease activity of Taq polymerase released the dyes from the oligonucleotide probe by displacing the probe from the target sequence resulting in fluorescence excitation in direct proportion to the amount of target message present. Data analysis was performed using the Sequence Detection System software from Applied Biosystems.
(§5) All primers and probes were designed using Primer Express software supplied with the 7700 Sequence Detection System and synthesized by Applied Biosystems. Standard curves using 5-fold dilutions of total RNA (from 200 ng to 320 pg) were performed to determine the efficiency of each primer/probe set in the TaqMan reaction prior to the analysis of the experimental samples. Primer/probe sets were designed from known sequences of rat genes to be analyzed. All target gene values were normalized to a reference gene, constitutively expressed cyclophilin. Primer/probe set sequences can be found in Table 8.
(§6) RNA was extracted from frozen (−80° C.) rat heart tissue using the Totally RNA Isolation Kit (Ambion, Inc., Austin, Tex.). Tissue was crushed using a stainless steel mortar and pestle, which had been chilled to −80° C. and transferred to a dounce homogenizer (Kontes, Vineland, N.J.) containing 3-10 mL cold denaturation buffer. Tissue was homogenized and transferred to a sterile, 15 mL polypropylene centrifuge tube. An equal volume of phenol:chloroform:isoamyl alcohol (25:24:1) was added, samples were shaken vigorously for 1 min, and incubated on ice for at least 15 min. Samples were centrifuged for 30 min at 10,000 g. The aqueous phase was removed, 1/10 volume of a sodium acetate solution (3.0 M NaOAc pH 4.5) was added, samples were shaken or inverted for 10 seconds, and acid-phenol (premixed with isoamyl alcohol):chloroform (5:1, Ambion, Inc.) was added at an volume equivalent to the starting sample volume. Samples were shaken vigorously for 1 min, followed by a 15-min incubation on ice, and centrifuged for 30 min at 10,000 g. The aqueous phase removed and placed in a clean polypropylene tube. An equal volume of isopropanol (Sigma, St. Louis, Mo.) was added and the samples were mixed and incubated overnight at −20° C. The samples were centrifuged for 30 min at 10,000 g, the supernatant was removed and the RNA pellet was resuspended in DNAse/RNAse-free water. Samples were frozen at −80° C. for at least 2 hours, thawed on wet ice, and diluted for quantitation.

The subject of assay [2] is hydroxyproline. Briefly: Assay C: myocardial hydroxyproline assay. Particulars: for Hydroxyproline: individual rats; for Hydroxyproline, Mean: group mean. The method, then:
The procedure of Assay B was expanded upon in a further study. […] Myocardial tissue from animals in each treatment group was examined after 7, 14, or 30 days of treatment. […] Lesions were preceded by the expression and progressive upregulation of proinflammatory molecules. […] Prior to surgery the animals were individually weighed and placed in one of the following groups: […] Potassium chloride supplementation was added to the saline solution in order to prevent the potential hypokalemia associated with aldosterone excess. […] Louis, Mo.) was inserted subcutaneously at the nape of the neck. Aldosterone was administered at a dose of […]. […] Animals were sacrificed from each group (n=8-13) after 7, 14, or 30 days of treatment. Following exsanguination, hearts and kidneys were isolated, removed, rinsed in cold phosphate-buffered saline, and blotted dry. […] Myocardial hydroxyproline concentration was measured by a colorimetric assay that quantifies the reaction between oxidized hydroxyproline, and p-dimethylaminobenzaldehyde as described previously (4). […] Dried tissues and a positive collagen control (Bovine Collagen Type I, Sigma, St. […] T. Baker, Phillipsburg, N.J.) for 5 min at 25° C. […] Samples were incubated at 60° C. for 30 min, cooled to room temperature, and absorbance was monitored at 558 nm. Hydroxyproline content was quantitated from a freshly prepared standard curve of trans-4-hydroxy-L-proline (Sigma, St. Louis, Mo.). All samples and standards were performed in duplicate.

The test system of assay [3] is Monocyte Chemoattractant Protein-1 (MCP-1). The assay can be described thus: Assay C: MCP-1 relative mRNA expression in heart (TaqMan). The following applies: for MCP1, Mean / MCP1: mRNA; for MCP1, Mean: group mean; for MCP1: individual rats; for MCP-1 mRNA expression in myocardium: time course 7, 14, 30 days, eplerenone 100 mg/kg/day. The method, then:
as §1, §2, §3, §4, §5, §6
Background: In qPCR the cycle at which signal appears reflects the starting amount.

Assay [4] concerns osteopontin. Briefly: Assay C: osteopontin relative mRNA expression in heart (TaqMan). The following applies: for Osteopontin, Mean / Osteopontin: mRNA; for Osteopontin, Mean: group mean; for Osteopontin: individual rats. The procedure:
as §1, §2, §3, §4, §5, §6

Where [5] appears, read: 7 days of treatment, listed as Aldosterone + salt.
Setting [6] is: 14 days of treatment, listed as Aldosterone + salt.
Where [7] appears, read: 30 days of treatment, listed as Aldosterone + salt.
Setting [8] is: 7 days of treatment, listed as Eplerenone + aldosterone + salt.
[9] abbreviates: 14 days of treatment, listed as Eplerenone + aldosterone + salt.
Setting [10] is: 30 days of treatment, listed as Eplerenone + aldosterone + salt.
Setting [11] is: time course 7, 14, 30 days, eplerenone 100 mg/kg/day.

As to `C[C@]12CCC(=O)C=C1CC[C@@H]1[C@@H]2[C@@H](O)C[C@]2(C=O)[C@@H](C(=O)CO)CC[C@@H]12` [aldosterone], in assay [1] (day 30 of aldosterone+salt treatment, did not reach statistical significance), the “VCAM-1 gene expression increase” value was “increased two-fold”. In addition, in assay [1] (30 days of treatment), the “VCAM, Mean” value was 2.14 AU. In addition, the VCAM is 0.85 AU and 0.61 AU and 0.94 AU and 0.27 AU in assay [1] (setting [5]); 0.89 AU and 0.69 AU and 0.84 AU and 0.72 AU in assay [1] (setting [6]); 0.72 AU in assay [1] (setting [7]). The Hydroxyproline in assay [2] (Table 9.14, 7-day protocol, myocardial, listed as Aldosterone + salt) was 2.10 µg/mg; in assay [2] (14 days of treatment, eplerenone 100 mg/kg/day, listed as Aldosterone + salt) it was 2.60 µg/mg and 3.00 µg/mg; in assay [2] (30 days of treatment, eplerenone 100 mg/kg/day, listed as Aldosterone + salt), 4.00 µg/mg. For the same molecule, the “MCP1, Mean” value in assay [3] (14 days of treatment) came to 2.76 AU; in assay [3] (30 days of treatment), 4.54 AU. Also, the MCP1 in assay [3] (setting [5]) turned out to be 2.40 AU; in assay [3] (setting [6]), 2.50 AU; in assay [3] (setting [7]) it was 2.30 AU. For the same molecule, the “MCP-1 mRNA expression in myocardium” value in assay [3] is reported as “significantly increased”. The “Osteopontin, Mean” value in assay [4] (14 days of treatment) is recorded as 6.56 AU; in assay [4] (30 days of treatment), 13.27 AU. Further, the Osteopontin in assay [4] (setting [5]) is 0.84 AU and 0.95 AU and 1.08 AU.

Take `COC(=O)[C@@H]1CC2=CC(=O)CC[C@]2(C)[C@@]23O[C@@H]2C[C@@]2(C)[C@@H](CC[C@@]24CCC(=O)O4)[C@H]13` [eplerenone, Pregn-4-ene-7,21-dicarboxylic acid, 9,11-epoxy-17-hydroxy-3-oxo-, γ-lactone, methyl ester, (7α, 11α, 17β) -]: the results for the “VCAM, Mean” value in assay [1] (7 days of treatment), in assay [1] (14 days of treatment) and in assay [1] (30 days of treatment) were 0.56 AU, 0.83 AU and 1.04 AU, respectively. For the same molecule, the VCAM in assay [1] (setting [8]) is 0.67 AU and 0.58 AU and 0.22 AU and 0.57 AU and 0.53 AU and 1.00 AU; in assay [1] (setting [9]), 0.54 AU and 0.66 AU and 0.61 AU (2×) and 0.67 AU and 0.86 AU and 1.00 AU and 0.68 AU (2×) and 1.60 AU; in assay [1] (setting [10]), 0.79 AU and 0.52 AU and 0.57 AU and 0.61 AU. The “VCAM-1 mRNA expression in myocardium” value in assay [1] (setting [11]) was “significantly reduced; also recorded: inhibition of early time-course expression of myocardial ICAM-1 and VCAM-1”. The entries for the “Hydroxyproline, Mean” value in assay [2] (14 days of treatment) and in assay [2] (30 days of treatment) were 4.46 µg/mg and 4.10 µg/mg, respectively. The Hydroxyproline in assay [2] (14 days of treatment, eplerenone 100 mg/kg/day, listed as Eplerenone + aldosterone + salt) was 6.80 µg/mg; in assay [2] (30 days of treatment, eplerenone 100 mg/kg/day, listed as Eplerenone + aldosterone + salt), 6.40 µg/mg. Also, the “MCP1, Mean” value in assay [3] (7 days of treatment) is on record as 1.56 AU; in assay [3] (30 days of treatment) it was 2.29 AU. Further, the MCP1 in assay [3] (setting [8]) was 1.60 AU and 0.85 AU and 0.83 AU and 0.67 AU; in assay [3] (setting [9]) it was 1.60 AU and 1.20 AU; in assay [3] (setting [10]), 1.70 AU and 2.10 AU. The “MCP-1 mRNA expression in myocardium” value in assay [3] is recorded as “significantly reduced; also recorded: inhibition of early time-course expression of myocardial MCP-1”. Besides, the “Osteopontin, Mean” value in assay [4] (7 days of treatment) was found to be 0.75 AU; in assay [4] (14 days of treatment), 2.94 AU; in assay [4] (30 days of treatment), 2.59 AU. Further, the Osteopontin in assay [4] (setting [8]) is 0.54 AU and 0.52 AU and 0.27 AU and 0.60 AU and 0.96 AU and 0.75 AU; in assay [4] (setting [9]), 1.00 AU and 0.77 AU and 1.59 AU and 0.72 AU and 0.99 AU; in assay [4] (setting [10]), 1.28 AU. In assay [4] (setting [11]), the “Osteopontin mRNA expression in myocardium” value is listed as “significantly reduced; also recorded: inhibition of early time-course expression of myocardial osteopontin”.
